Source: patent US20120165331A1, “Di/tri-aza-spiro-C9-C11alkanes” (priority 2010, published 2012)

Experiments:
[1] = molecular target: T1, human orexin 1 receptor (Homo sapiens, UniProt O43613); experiment: Radioligand binding assay ([3H]-SB649868 competition), human orexin 1 receptor; details: radioligand [3H]-SB649868; read-out: Binding hOx1R Kd
T1 construct: expressed in transfected cells
T1 sequence (O43613 1-425): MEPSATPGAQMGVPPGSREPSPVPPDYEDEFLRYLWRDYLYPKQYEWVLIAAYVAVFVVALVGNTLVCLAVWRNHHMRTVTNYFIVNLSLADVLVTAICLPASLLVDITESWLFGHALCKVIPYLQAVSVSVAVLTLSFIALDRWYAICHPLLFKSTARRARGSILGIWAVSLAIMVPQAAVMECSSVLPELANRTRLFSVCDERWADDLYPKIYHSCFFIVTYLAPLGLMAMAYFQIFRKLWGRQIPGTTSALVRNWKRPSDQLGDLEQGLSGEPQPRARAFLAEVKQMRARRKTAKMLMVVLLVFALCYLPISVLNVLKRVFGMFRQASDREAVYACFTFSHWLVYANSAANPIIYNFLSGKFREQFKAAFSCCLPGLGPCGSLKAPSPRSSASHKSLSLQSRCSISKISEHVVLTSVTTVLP
Method: (§1) Radioligand Binding Assay
(§2) For crude cell membrane preparations, cells (CHO, Chinese hamster ovary or HEK, human embryonic kidney) expressing human orexin 1 or human orexin 2 receptors, were washed with HEPES (10 mM, pH 7.5), scraped off the culture plates with the same buffer, and centrifuged at 4° C. for 5 min at 2500×g. The cell pellet was either stored at −80° C. or used directly. Before the experiments, cell membranes were re-suspended in binding assay buffer (10 mM HEPES, 0.5% (w/v) bovine serum albumin, pH 7.5) by homogenisation with a Polytron homogeniser at 50 Hz for 20 s. Cell membranes were also used as made available by commercial providers.
(§3) Bound radioactivity was measured, and data were analysed with the program XLFIT or Graphpad Prism. Protein concentration was determined according to the Bradford/BioRad Protein Assay Kit.
(§4) In competition experiments, cell homogenates (150 μl) were incubated in assay buffer (10 mM HEPES, pH 7.5, 0.5% (w/v) bovine serum albumin, 5 mM MgCl2, 1 mMCaCl2, and tween 0.05%) for 1 h at room temperature with about 1 nM of the radioligand [^3H]-SB649868, 66 Ci/mmole, 50 μl), and with various concentrations of compounds of the invention (50 μl) in triplicates; non-specific binding was determined in the presence of almorexant (10 μM). Reactions were terminated by vacuum filtration, 3 washes of ice cold wash buffer (Tris-HCl pH 7.4/10 mM, with NaCl 154 mM). Competition data is expressed in Table 1 as Kd [μM].

[2] = molecular target: T2, human orexin 2 receptor (Homo sapiens, UniProt O43614); experiment: Radioligand binding assay ([3H]-SB649868 competition), human orexin 2 receptor; details: radioligand [3H]-SB649868; read-out: Binding hOx2R Kd
T2 construct: expressed in transfected cells
T2 sequence (O43614 1-444): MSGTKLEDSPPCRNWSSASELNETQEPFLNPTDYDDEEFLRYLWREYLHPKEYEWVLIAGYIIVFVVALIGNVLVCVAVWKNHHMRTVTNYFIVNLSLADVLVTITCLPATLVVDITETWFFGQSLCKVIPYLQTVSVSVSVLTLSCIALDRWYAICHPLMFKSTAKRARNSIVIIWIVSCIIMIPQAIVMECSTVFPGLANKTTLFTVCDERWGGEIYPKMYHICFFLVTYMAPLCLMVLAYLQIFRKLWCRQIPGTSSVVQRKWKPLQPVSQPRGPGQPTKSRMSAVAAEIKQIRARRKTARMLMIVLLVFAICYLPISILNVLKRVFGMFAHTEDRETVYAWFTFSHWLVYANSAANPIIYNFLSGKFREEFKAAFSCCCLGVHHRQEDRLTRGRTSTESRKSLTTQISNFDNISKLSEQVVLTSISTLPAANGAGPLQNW
Method: as §1, §2, §3, §4

[3] = molecular target: T1, human orexin 1 receptor; experiment: Calcium accumulation in cells (FLIPR), antagonism of orexin A, human orexin 1 receptor; assay type: cell-based; details: for Ki: calcium accumulation, antagonism of orexin A, Cheng-Prusoff corrected, read-out: FLIPR hOx1R Ki; for inhibition at 10 µM: measured at a concentration of 10 μM of compound, read-out: FLIPR hOx1R % inhibition
[4] = molecular target: T2, human orexin 2 receptor; experiment: Calcium accumulation in cells (FLIPR), antagonism of orexin A, human orexin 2 receptor; assay type: cell-based; details: calcium accumulation, antagonism of orexin A, Cheng-Prusoff corrected; read-out: FLIPR hOx2R Ki

| SMILES | Kd [1] | Kd [2] | Ki [3] | Ki [4] | inhibition at 10 µM [3] |
| --- | --- | --- | --- | --- | --- |
| COc1cc(C)nc(N2CC[C@]3(CCCN(Cc4c[nH]c5ccccc45)C3=O)C2)n1 (single isomer, unassigned) [Example 7.9] | 0.012 µM | 0.012 µM | 0.01 µM | 0.0019 µM | – |
| COc1cc(C)nc(N2CC[C@@]3(CCCN(Cc4c[nH]c5ccccc45)C3=O)C2)n1 (single isomer, unassigned) [Example 7.10] | 0.75 µM | 0.238 µM | 0.139 µM | 0.014 µM | – |
| Cc1cc(C)nc(N2CCC3(CC2)NCCN(Cc2c[nH]c4ccc(F)cc24)C3=O)n1 [Example 1.4, 9-(4,6-Dimethylpyrimidin-2-yl)-4-((5-fluoro-1H-indol-3-yl)methyl)-1,4,9-triazaspiro[5.5]undecan-5-one] | 0.77 µM | 0.017 µM | 0.601 µM | 0.006 µM | – |
| COc1cccc(-c2oc(C)nc2CN2CCNC3(CCN(c4nc(C)cc(C#N)n4)CC3)C2=O)c1 [Example 1.16, 2-(4-((5-(3-Methoxyphenyl)-2-methyloxazol-4-yl)methyl)-5-oxo-1,4,9-triazaspiro[5.5]undecan-9-yl)-6-methylpyrimidine-4-carbonitrile] | – | 0.188 µM | – | 0.031 µM | 35% |
| COc1cccc(-c2sc(C)nc2CN2CCNC3(CCN(c4nc(C)cc(C#N)n4)CC3)C2=O)c1 [Example 1.25, 2-(4-((5-(3-Methoxyphenyl)-2-methylthiazol-4-yl)methyl)-5-oxo-1,4,9-triazaspiro[5.5]undecan-9-yl)-6-methylpyrimidine-4-carbonitrile] | – | 0.394 µM | – | 0.076 µM | 31% |
| COc1cncc(-c2cn(C)nc2CN2CCNC3(CCN(c4nc(C)cc(C)n4)CC3)C2=O)c1 [Example 1.55, 9-(4,6-Dimethyl-pyrimidin-2-yl)-4-((4-(5-methoxypyridin-3-yl)-1-methyl-1H-pyrazol-3-yl)methyl)-1,4,9-triazaspiro[5.5] undecan-5-one] | 5.87 µM | 0.162 µM | – | 0.016 µM | – |
| COCc1noc(-c2ccccc2CN2CCNC3(CCN(c4nc(C)cc(C)n4)CC3)C2=O)n1 [Example 1.63, 9-(4,6-dimethyl-pyrimidin-2-yl)-4-(2-(3-(methoxymethyl)-1,2,4-oxadiazol-5-yl)benzyl)-1,4,9-triazaspiro[5.5] undecan-5-one] | – | 0.252 µM | 4.08 µM | 0.046 µM | – |
| COCc1cccc(-c2nn(C)nc2CN2CCNC3(CCN(c4nc(C)cc(C)n4)CC3)C2=O)c1 [Example 1.76, 9-(4,6-dimethyl-pyrimidin-2-yl)-4-((5-(3-(methoxy-methyl)phenyl)-2-methyl-2H-1,2,3-triazol-4-yl)methyl)-1,4,9-triazaspiro[5.5] undecan-5-one] | – | 0.174 µM | 1.64 µM | 0.086 µM | – |
| Cc1cc(C)nc(N2CCC3(CC2)OCCN(Cc2n[nH]nc2-c2ccccc2)C3=O)n1 [Example 2.14, 9-(4,6-Dimethylpyrimidin-2-yl)-4-((5-phenyl-2H-1,2,3-triazol-4-yl)methyl)-1-oxa-4,9-diazaspiro[5.5]undecan-5-one] | – | 0.241 µM | 2.72 µM | 0.05 µM | – |
| Cc1cc(C)nc(N2CCC3(CCN(Cc4c[nH]c5ccccc45)C3=O)CC2)n1 [Example 3.1, 2-((1H-Indol-3-yl)methyl)-8-(4,6-dimethylpyrimidin-2-yl)-2,8-diazaspiro[4.5]decan-1-one] | – | 0.228 µM | 1.9 µM | 0.032 µM | – |
| COc1cc(C)nc(N2CCC3(CCN(Cc4c[nH]c5ccccc45)C3=O)CC2)n1 [Example 3.18, 2-(1H-Indol-3-ylmethyl)-8-(4-methoxy-6-methyl-pyrimidin-2-yl)-2,8-diaza-spiro[4.5]decan-1-one] | – | 1.03 µM | 1.24 µM | 0.037 µM | – |
| COc1cc(C)nc(N2CCC3(CCN(Cc4n[nH]c5ccccc45)C3=O)CC2)n1 [Example 3.21, 2-((1H-indazol-3-yl)methyl)-8-(4-methoxy-6-methylpyrimidin-2-yl)-2,8-diazaspiro[4.5]decan-1-one] | – | 0.699 µM | 1.01 µM | 0.117 µM | – |
